Measured values taken from publication PMC5390981, “Peptide probes derived from pertuzumab by molecular dynamics modeling for HER2 positive tumor imaging” (PLoS Computational Biology, 2017).
One block for each molecule: values may come before it. No end group written: not given here.

Key:
[1] = system: SKBR3 cell line with high HER2 expression; experiment: Confocal fluorescence imaging of cells incubated with Cy5.5-labeled peptides; type: cell-based; details: 50 μM Cy5.5-labeled peptide, 4°C, 20 min
Method: Four cell lines (SKBR3, MCF7, MDA-MB-468, and 293A) were seeded at a density of 3000 cells/mL into culture dishes and allowed to culture overnight with 5% CO2 at 37°C. Cell nuclei was stained with 1 mM Hoechst 33342 in 200 μL cell culture medium and incubated at 37°C for 15 min. Then, cells were incubated in culture medium with 50 μM Cy5.5-labeled peptide at 4°C for 20 min. Finally, cells were washed three times with cold PBS for observation. An Olympus FV1000-IX81 confocal-laser scanning microscope was used for confocal fluorescence imaging. An FV5-LAMAR 633 nm laser was used as the excitation source, and the emission wave length was collected at 690 nm. Hoechst 33342 was excited by a FV5-LD405-2 405 nm laser and collected within the range of 422–472 nm. All microscope parameters were identical for all observations of the binding ability of the various peptides.

[2] = system: subcutaneous SKBR3 tumor xenografts; experiment: In vivo and ex vivo fluorescence imaging of tumor targeting; parameters: species or system Balb/c female nude mice; details: for in vivo tumor fluorescence intensity (binding affinity increase) relative to the control Cy5.5: Cy5.5-labeled peptide 1 μM, 200 μL i.v. tail vein, 30 min postinjection, nude mice with SKBR3 xenografts, average n = 3; for ex vivo tumor fluorescence signal compared to controls: dissected tumors 30 min postinjection of Cy5.5-labeled peptide, n = 3
Method: Five to six-week-old Balb/c female nude mice were subcutaneously administered approximately 1 × 10^7 SKBR3 cells into the right hind leg, to establish xenografted tumors. Thereafter, tumor size was periodically measured with a caliper, and mice with tumors of 6−8 mm in diameter were selected for the following small animal experiments. Cy5.5–NHS (Lumiprobe) was used to label peptides. Either Cy5.5-peptides or the control Cy5.5 (1 μM, 200 μL) was intravenously injected into tumor-bearing nude mice via the tail vein. The mice were anesthetized and fluorescence signals measured using the small animal in vivo imaging system 30 min postinjection. Three mice were used for each peptide and for control. Near-infrared fluorescence imaging of tumor-bearing nude mice were taken with an exposure time of 50 ms, using the Cy5.5 filter sets (excitation: 673 nm; emission: 707 nm), and the intensities were quantified using the same software. Then, fluorescence images of the main organs and of tumors dissected from nude mice were individually taken as above.

[3] = system: SKBR3; experiment: Toxicity of peptides to cells (S4 Fig); type: cell-based
[4] = system: HUVEC; experiment: Toxicity of peptides to cells (S4 Fig); type: cell-based
[5] = molecular target: HER2/biotin complex (Homo sapiens, UniProt P04626); experiment: OBOC peptide library screening with magnetic beads; type: binding; details: library of 5184 sequences, HER2/biotin and magnetic streptavidin microspheres, 37°C, 2 h each step
From the text: The OBOC peptide library was designed based on binding free energies derived from the MD simulations of single and double mutants that are lower than the HER2/4665 complex. These mutations are in the 4665 fragment of pertuzumab from 55 to 64: EWVADVNPNX55X56X57X58X59X60N61X62X63X64K. According to computational calculations, the V, S, and M mutants have lower energies for X55. This is also the case for G, M, and Y for X56; G, A, and V for X57; S, F, and H for X58; I and R for X59; Y and W for X60; Q and F for X62; R, W, Q, and V for X63; and F and R for X64. The result is a 3*3*3*3*2*2*2*4*2 = 5184 library capacity.
The OBOC library synthesis and screening was performed as per the previously used method. Briefly, HBTU (4 mmol) and Fmoc-amino acid (4 mmol) reagent was dissolved in 0.4 mol/L N-Methyl morpholine in N,N-dimethylformamide and coupled with the solid phase supporting materials for 40 min during the coupling step. A 20% piperidine was used to remove the Fmoc group for 10 min in the deprotection step. During the OBOC library synthesis, the amino acid coupling process was carried out in the “split” step, while the deprotection process was carried out in the “pool” step. After elongation, a trifluoroacetic acid cleavage reagent was introduced to cleave the side chain protection group of each residue. […]

[6] = molecular target: T1, HER2 protein (human epidermal growth factor receptor 2) (human, UniProt P04626 23-652); experiment: SPR; SPR imaging (SPRi, PlexArray HT); peptides immobilised through an N-terminal cysteine on a bare gold chip, blocked with 5% nonfat milk; HER2 or HSA in PBST flowed at 0.625 to 20 μg/mL; KD from fitting association-dissociation curves; details: both partners purified
T1 construct: Human epidermal growth factor receptor 2 (HER2), bought protein; Surmise: the bought protein is probably a soluble extracellular domain, possibly tagged; source: bought: Sino Biological Inc., China

[7] = molecular target: HER2 on cells (SKBR3, high expression; MCF7, medium expression) (human (endogenous in SKBR3), UniProt P04626 23-1255); experiment: cell-based or functional assay

Molecule: Cy5.5-58F63Y: peptide 58F63Y labeled with Cy5.5 (Cy5.5–NHS) (EWVADVNPNSGGFIYNQYFK; also: Cy5.5 label (via Cy5.5-NHS), position not given here)
- fluorescent intensity of Cy5.5-peptides in SKBR3 cells [1]: strongest fluorescence

Molecule: EWVADVNPNSGGFIYNQYFK [58F63Y]
- in vivo tumor fluorescence intensity (binding affinity increase) relative to the control Cy5.5 [2]: 5.09 fold
- ex vivo tumor fluorescence signal compared to controls [2]: significantly high fluorescence signals
- toxicity to SKBR3 cells [3]: no toxicity
- toxicity to HUVEC cells [4]: no toxicity
- OBOC library screening result (bead identified by MALDI-TOF-MS/MS) [5]: positive

Molecule: EWVADVNPNSGGSIYNQRFK [compound 4665]
- in vivo tumor fluorescence intensity (binding affinity increase) relative to the control Cy5.5 [2]: 3.52 fold
- ex vivo tumor fluorescence signal compared to controls [2]: significantly high fluorescence signals
- toxicity to SKBR3 cells [3]: no toxicity
- toxicity to HUVEC cells [4]: no toxicity

B1: peptide 55V63Y with N-terminal cysteine, for SPRi (peptide)
peptide: CEWVADVNPNVGGSIYNQYFK
notes: a cysteine residue linked to the amino terminal, for attachment to the bare gold chip; numbers count on: pertuzumab (first letter is 46); source: synthetic peptide (Fmoc solid phase synthesis, HPLC purified)
- Kd [6]: 8.16 µM

Molecule: EWVADVNPNSGGFIYNQYFK (also: Cy5.5 label (via Cy5.5-NHS), position not given here) [Cy5.5-labeled peptide 58F63Y]
- in vivo fluorescence intensity of SKBR3 tumor xenografts in nude mice 30 min after injection of Cy5.5-58F63Y, relative to the control Cy5.5 [7]: 5.09 fold

B3: peptide 55V (4665 with Ser55 to Val) with N-terminal cysteine, for SPRi (peptide)
peptide: CEWVADVNPNVGGSIYNQRFK
notes: as for B1
- Kd [6]: 64.6 µM

B6: peptide 58F63Y with N-terminal cysteine, for SPRi (peptide)
peptide: CEWVADVNPNSGGFIYNQYFK
notes: as for B1
- Kd [6]: 0.536 µM

Next, values leading:

- Kd [6]: 1.54 µM
B2: peptide 63Y (4665 with Arg63 to Tyr) with N-terminal cysteine, for SPRi (peptide)
peptide: CEWVADVNPNSGGSIYNQYFK
notes: as for B1

- Kd [6]: 9.86 µM
B4: peptide 4665 (pertuzumab fragment Glu46 to Lys65) with N-terminal cysteine, for SPRi (peptide)
peptide: CEWVADVNPNSGGSIYNQRFK
notes: a cysteine residue linked to the amino terminal, for attachment to the bare gold chip; fragment of pertuzumab from Glu46 to Lys65 (beta hairpin); numbers count on: pertuzumab in PDB 1S78; source: synthetic peptide (Fmoc solid phase synthesis, HPLC purified)

- Kd [6]: 1.32 µM
B5: peptide 58F (4665 with Ser58 to Phe) with N-terminal cysteine, for SPRi (peptide)
peptide: CEWVADVNPNSGGFIYNQRFK
notes: as for B1
